For 13 compounds, IC50 results are on record in BindingDB's records for patent US12351556 (Inserm (Institut National De La Sante Et De La Recherche …, 2025).

This experiment concerns the target Mitogen-activated protein kinase 14 (Homo sapiens, UniProt Q16539). As to the kind of experiment: In Vitro Affinity Assay.
Excerpt: Not found

Structures are written as SMILES.

Chain of Mitogen-activated protein kinase 14 (Q16539 whole entry): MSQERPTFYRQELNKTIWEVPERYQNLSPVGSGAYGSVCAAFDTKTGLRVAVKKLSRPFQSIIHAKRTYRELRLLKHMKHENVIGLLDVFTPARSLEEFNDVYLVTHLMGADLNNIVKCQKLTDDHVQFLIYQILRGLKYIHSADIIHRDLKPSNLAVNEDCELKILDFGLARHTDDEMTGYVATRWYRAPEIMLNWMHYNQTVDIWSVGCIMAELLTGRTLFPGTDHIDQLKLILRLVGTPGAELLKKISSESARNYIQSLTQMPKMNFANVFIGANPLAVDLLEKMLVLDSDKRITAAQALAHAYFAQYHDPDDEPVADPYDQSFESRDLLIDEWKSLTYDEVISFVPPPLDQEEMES

As for `O=C1NC=C(Nc2ccccc2)CC1c1cccc2[nH]ccc12` (stereo not drawn) [US12351556, Compound 67], half-maximal inhibition (IC50) required 3030 nM.
Next, `O=C1NC=C(Nc2ccccc2)CC1c1ccccc1Br` (stereo not drawn) [US12351556, Compound 69]: 1460 nM.
As to `O=C1NCC(Nc2ccccc2F)C=C1c1cccc2[nH]ccc12` (stereo not drawn) [US12351556, Compound 118], the IC50 – broadly, the point on the concentration scale where inhibition reaches its midpoint – turned out to be 230 nM.
In turn, `O=C1NCC(Nc2ccc(F)cc2)C=C1c1cccc2[nH]ccc12` (stereo not drawn) [US12351556, Compound 119] showed an IC50 of 1420 nM.
`O=C1NCC(Nc2ccc(F)cc2)C=C1c1cccc2[nH]ccc12` (stereo not drawn) [US12351556, Compound 120] came in with an IC50 of 430 nM.
In the case of `COc1ccccc1NC1=CNC(=O)C(c2cccc3[nH]ccc23)C1` (stereo not drawn) [US12351556, Compound 121] it was 5250 nM; in that of `COc1cccc(NC2=CNC(=O)C(c3cccc4[nH]ccc34)C2)c1` (stereo not drawn) [US12351556, Compound 122], 5530 nM; in that of `COc1ccc(NC2=CNC(=O)C(c3cccc4[nH]ccc34)C2)cc1` (stereo not drawn) [US12351556, Compound 123], 3670 nM.
With `Cc1ccccc1NC1=CNC(=O)C(c2cccc3[nH]ccc23)C1` (stereo not drawn) [US12351556, Compound 130], half-maximal inhibition (IC50) was put at 1060 nM.
Compound `O=C1NCC(NC2=CC(O)CC=C2)C=C1c1cccc2[nH]ccc12` (stereo not drawn) [US12351556, Compound 134] returned an IC50 of 1040 nM.
For the compound `O=C1NCC(Nc2ccccc2Br)C=C1c1cccc2[nH]ccc12` (stereo not drawn) [US12351556, Compound 141], it took 2720 nM to reach half-maximal inhibition (IC50).
In the case of `O=C1NCC(NC2=CC(Br)CC=C2)C=C1c1cccc2[nH]ccc12` (stereo not drawn) [US12351556, Compound 142] it was 660 nM; in that of `O=C1NCC(Nc2ccc(Br)cc2)C=C1c1cccc2[nH]ccc12` (stereo not drawn) [US12351556, Compound 143], 2350 nM.
